Read-outs that look alike come from different tables or passages of the source.
What was measured:
KM12 cells = assay: Proliferation of KM12 cells (CellTiter-Glo); assay type: cell-based, human; conditions: read-out: KM-12, IC50
Excerpt: KM12 is a human colon cancer cell line in which NTRK1 is highly expressed, and gene fusion occurs with TPM3 to form TPM3-NTRK1. • [Test method]: Promega's CellTiter-Glo® Luminescent Cell Viability Assay kit was used to evaluate the inhibitory activity of the compounds on the proliferation of KM12 cells. • [Instrument]: Spectramax M3 multifunctional microplate reader from Molecular Devices. • [Test materials]: KM12 cell line (ATCC, item number CRL-12496), 96-well transparent flat-bottomed black-walled cell culture plate (Corning, item number #3603), RPMI-1640 media (GE, cat #SH30027.01), Fetal Bovine Serum FBS (Thermo Fisher, cat #10099-141), CellTiter-Glo® Luminescent Cell Viability Assay Kit (Promega, cat #G7572), PBS (Solarbio, cat #P1020), Trypsin (Thermo Fisher, cat #25200072), DMSO (Sigma, cat #D2650). • [Experimental procedure]: When resuscitating KM12 cells, the freezing tube was quickly shaken in a 37° C. water bath to melt within 1 minute. The thawed cell suspension was mixed uniformly with RPMI1640 medium containing 10% FBS, centrifuged at 1000 rpm for 5 minutes, and the supernatant discarded. 5 mL of complete medium (RPMI1640 medium with 10% FBS) was taken to resuspend the cell pellets, charged into a cell culture flask with a bottom area of 25 cm^2, and incubated in a cell incubator at 37° C., 95% humidity and 5% CO2. Cells were allowed to passage when the cell confluence rate reached about 80%. For cell passage, the old medium was discarded, and the cells were washed twice with PBS, and 0.5 mL trypsin was added to digest the cells. Upon dispersing into single cells and exfoliating from the bottom of the cell culture flask, 4.5 mL of new complete medium was added to terminate the digestion. After pipetting the cell suspension evenly, 1/5 of the cell suspension was kept and added with 4 mL of new complete medium, and after pipetting evenly, the cell flask was placed in the cell incubator for further culturing. Cell plating was performed when the cell confluence rate reached about 80% again. For cell plating, 1/5 of the cell suspension was kept for further culturing as in the cell passage method, and the remaining 4/5 of the cell suspension was placed in a 15 mL centrifuge tube, detected for cell viability by Trypan blue exclusion method to ensure that cell viability was above 90%. A cell suspension with a density of 3.33×10^4 viable cells/mL was prepared with complete medium, and 90 μL of such cell suspension was added to a 96-well cell culture plate to obtain a cell density of 3000 viable cells/mL in the cell culture plate. A control group containing no cells, no compound and only complete medium (i.e. culture medium control) and a control group containing no compound but containing cells (i.e. cell control) were set. The cell plate was placed in a cell incubator overnight.
The 10 mM compound stock solution in DMSO was first serially diluted with DMSO at a dilution factor of 3.16 times, to obtain 9 concentrations, and the 10th concentration was set as DMSO control without compound. Then, PBS was used to dilute the DMSO solutions of compounds of different concentrations, at a dilution factor of 100 times, so that the DMSO concentration in the compound solution of each concentration was 1%. Finally, 10 μL of each of the above solutions was added to the corresponding cell culture plate, so that the initial compound concentration was 10 μM, with the remaining concentrations being successively diluted at a dilution factor of 3.16 times, and the DMSO content in the cell culture plate was 0.1%.
The cell plate was placed in a cell incubator and cultured for 72 hours. For endpoint detection, the CellTiter-Glo reagent was melted, and the cell plate was moved to room temperature to equilibrate for 30 minutes, added with 100 μL of CellTiter-Glo for each well, and shaken on an orbital shaker for 5 minutes to fully lyse the cells. […]

[1] = tested on: Ba/F3 ETV6-NTRK3-G696C cells; assay: Proliferation of Ba/F3 ETV6-NTRK3-G696C cells (CellTiter-Glo); assay type: cell-based, mouse; conditions: Mus musculus, BaF3, Table 7-2; separate test; read-out: Ba/F3 ETV6-NTRK3-G696C, IC50
Excerpt: Ba/F3 ETV6-NTRK3-G696C is a stable transgenic cell line constructed by KYinno Biotechnology Co., Ltd. on mouse primary B cell Ba/F3 wherein NTRK3 is highly expressed with a mutation of G at position […] to C and fused with ETV6 to form ETV6-NTRK3. • [Test method]: Promega's CellTiter-Glo® Luminescent Cell Viability Assay kit was used to evaluate the inhibitory activity of the compounds on the proliferation of Ba/F3 ETV6-NTRK3-G696C cells. • [Instrument]: Spectramax M3 multifunctional microplate reader from Molecular Devices. • [Test materials]: Ba/F3 ETV6-NTRK3-G696C cell line (constructed by KYinno Biotechnology Co., Ltd. (Beijing)), 96-well transparent flat-bottomed black-walled cell culture plate (Corning, cat #3603), RPMI-1640 media (GE, product number #SH30027.01), fetal bovine serum FBS (Thermo Fisher, cat #10099-141), CellTiter-Glo® Luminescent Cell Viability Assay kit (Promega, cat #G7572), PBS (Solarbio, cat #P1020), DMSO (Sigma, cat #D2650). • [Experimental procedure]: When resuscitating Ba/F3 ETV6-NTRK3-G696C cells, • the freezing tube was quickly shaken in a 37° C. water bath to melt within 1 minute. The thawed cell suspension was mixed uniformly with RPMI1640 medium containing 10% FBS, centrifuged at 1000 rpm for 5 minutes, and the supernatant discarded. 5 mL of complete medium (RPMI1640 medium with 10% FBS) was taken to resuspend the cell pellets, charged into a cell culture flask with a bottom area of 25 cm^2, and incubated in a cell incubator at 37° C., 95% humidity and 5% CO2. Cells were allowed to passage when the number of cells reached about 10^6 cells/mL. For cell passage, the old cell suspension was directly pipetted evenly, 1/5 of the cell suspension was kept, 4 mL of new complete medium was added, after pipetting evenly, the cell flask was placed in the cell incubator for further culturing. Cell plating was performed when the number of cells reached about 10^6 cells/mL again. For cell plating, 1/5 of the cell suspension was kept for further culturing as in the cell passage method, and the remaining 4/5 of the cell suspension was placed in a 15 mL centrifuge tube, detected for cell viability by Trypan blue exclusion method to ensure that cell viability was above 90%. A cell suspension with a density of 5.56×10^4 viable cells/mL was prepared with complete medium, and 90 μL of such cell suspension was added to a 96-well cell culture plate to obtain the cell density of 5000 viable cells/mL in the cell culture plate. A control group containing no cells, no compound and only complete medium (i.e. culture medium control) and a control group containing no compound but containing cells (i.e. cell control) were set. The cell plate was placed in a cell incubator overnight. The 10 mM compound stock solution in DMSO was first serially diluted with DMSO at a dilution factor of 3.16 times, to obtain 9 concentrations, and the 10th concentration was set as DMSO control without compound. Then, PBS was used to dilute the DMSO solutions of compounds of different concentrations, at a dilution factor of 100 times, so that the DMSO concentration in the compound solution of each concentration was 1%. Finally, 10 μL of each of the above solutions was added to the corresponding cell culture plate, so that the initial compound concentration was 10 μM, with the remaining concentrations being successively diluted at a dilution factor of 3.16 times, and the DMSO content in the cell culture plate was 0.1%. The cell plate was placed in a cell incubator and cultured for 72 hours. For endpoint detection, the CellTiter-Glo reagent was melted, and the cell plate was moved to room temperature to equilibrate for 30 minutes, added with 100 μL of CellTiter-Glo for each well, and shaken on an orbital shaker for 5 minutes to fully lyse the cells. […]

MKN45 cells = assay: Proliferation of MKN45 cells; assay type: cell-based; conditions: Homo sapiens, MKN-45; Table 8
Experimental: MKN45 is a human poorly differentiated gastric cancer cell line with high MET expression. Cell proliferation experiments were performed according to literature methods (Zhang, D. et al. Bioorg. Med. Chem. 2013, 21, 6804; Riss, T. L.; Moravec, R. A.; Niles, A. L.; et al. Cell Viability Assays 2013 May 1 [Updated 2016 Jul. 1]. In: Sittampalam, G. S.; Grossman, A.; Brimacombe, K.; et al., editors. Assay Guidance Manual [Internet]. Bethesda (MD): Eli Lilly & Company and the National Center for Advancing Translational Sciences; 2004-. Available from: https://www.ncbi.nlm.nih.gov/books/NBK144065/).

[2] = Homo sapiens, KM12, Table 1-2, separate test

SMILES	IC50 [1]	IC50 (KM12 cells; [2])	further results
N.N.[Cl][Pt][Cl] [Cisplatin, reference compound]	–	–	IC50 (KM12 cells; Table 1, 72 hours): 27.3 µM
CCn1ncc2cc(Oc3ccc(NC(=O)c4ccc(OC5CC5)n(-c5ccc(F)cc5)c4=O)cc3F)c(-c3cn[nH]c3)cc21 [Example 25, N-(3-fluoro-4-(1-ethyl-6-(1H-pyrazol-4-yl)-1H-indazol-5-yloxy)phenyl)-1-(4-fluorophenyl)-6-cyclopropoxy-2-oxo-1,2-dihydropyridine-3-carboxamide]	0.0063 µM	0.029 µM	–
CN1CCN(c2ccc(C(=O)Nc3n[nH]c4ccc(Cc5cc(F)cc(F)c5)cc34)c(NC3CCOCC3)c2)CC1 [RXDX-101, reference compound]	–	–	IC50 (KM12 cells; Homo sapiens, KM12, 72 h, Table 1, 72 hours): 0.0051 µM
CCn1ncc2cc(Oc3ccc(NC(=O)c4ccc(OCC(F)(F)F)n(-c5ccc(F)cc5)c4=O)cc3F)c(-c3cn[nH]c3)cc21 [Example 27, N-(3-fluoro-4-(1-ethyl-6-(1H-pyrazol-4-yl)-1H-indazol-5-yloxy)phenyl)-1-(4-fluorophenyl)-6-(2,2,2-trifluoroethoxy)-2-oxo-1,2-dihydropyidine-3-carboxamide]	0.003 µM	–	–
Cn1ncc2cc(Oc3ccc(NC(=O)c4ccc(OCC(F)(F)F)n(-c5ccc(F)cc5)c4=O)cc3F)c(-c3cn[nH]c3)cc21 [Example 17, N-(3-fluoro-4-(1-methyl-6-(1H-pyrazol-4-yl)-1H-indazol-5-yloxy)phenyl)-1-(4-fluorophenyl)-6-(2,2,2-trifluoroethoxy)-2-oxo-1,2-dihydropyidine-3-carboxamide]	0.0037 µM	0.019 µM	IC50 (MKN45 cells): 0.015 µM

Reference: patent US11952364B2, “TRK inhibitors useful as anticancer drugs” (TYLIGAND BIOSCIENCE (SHANGHAI) LIMITED, priority 2018, dated 2024)
